Results published in ChEMBL document CHEMBL3880410, “Novel oxabispidine compounds and their use in the treatment of cardiac arrhythmias” (2009).

Test system: Cavia porcellus
Assay: Anti-cardiac arrhythmia activity in anaesthetised guinea pig assessed as cumulative dose inducing prolongation of monophasic action potential duration by 10% from baseline administered as first dose infusion in 0.2 mL/kg into jugular vein catheter for 30 secs followed by next dosing after 5 mins for 6 to 10 consecutive times by electrophysiology based assay
Type: functional

Row | Structure (SMILES) | D10 [mg/kg]
1 | Cc1nn(C)c(Cl)c1S(=O)(=O)NCCN1CC2CN(CCCOc3ccc(C#N)cc3)CC(C1)O2 | >5.5
2 | N#Cc1ccc(S(=O)(=O)NCCCN2CC3CN(CCc4cccc(F)c4)CC(C2)O3)cc1 | >5.5
3 | O=S(=O)(NCCN1CC2CN(CCc3cccc(F)c3)CC(C1)O2)c1ccc(F)cc1 | >5.5
4 | N#Cc1ccc(S(=O)(=O)NCCN2CC3CN(CCc4cccc(F)c4)CC(C2)O3)cc1 | >5.5
5 | N#Cc1ccc(S(=O)(=O)NCCN2CC3CN(Cc4ccc(C#N)cc4F)CC(C2)O3)cc1 | >5.5
6 | N#Cc1ccc(S(=O)(=O)NCCN2CC3CN(Cc4ccc(OC(F)F)cc4)CC(C2)O3)cc1 | >5.5
7 | N#Cc1ccc(OCCN2CC3CN(CCNS(=O)(=O)c4cccc(C#N)c4)CC(C2)O3)cc1 | >5.5
8 | N#Cc1ccc(OCCCN2CC3CN(CCCNS(=O)(=O)c4ccccc4)CC(C2)O3)cc1 | >5.5
9 | CN(CCN1CC2CN(CCc3ccc(F)cc3F)CC(C1)O2)S(=O)(=O)c1ccc(C#N)cc1 | >5.5
10 | Cc1cc(C)n(CCN2CC3CN(CCNS(=O)(=O)c4ccc(C#N)cc4)CC(C2)O3)n1 | >5.5
11 | N#Cc1ccc(OCCN2CC3CN(CCNS(=O)(=O)c4cccc(F)c4)CC(C2)O3)cc1 | >5.5
12 | N#Cc1ccc(S(=O)(=O)NCCN2CC3CN(CCc4ccc(Cl)cc4)CC(C2)O3)cc1 | >5.5
13 | N#Cc1ccc(OCCN2CC3CN(CCNS(=O)(=O)Cc4ccccc4)CC(C2)O3)cc1 | >5.5
14 | N#Cc1ccc(OCCCN2CC3CN(CCNS(=O)(=O)Cc4cccc(Cl)c4)CC(C2)O3)cc1 | >5.5
15 | Cc1noc(C)c1CN1CC2CN(CCS(=O)(=O)NCc3ccc(C#N)cc3)CC(C1)O2 | >5.5
16 | N#Cc1ccc(OCCN2CC3CN(CCCNS(=O)(=O)c4ccc(F)cc4F)CC(C2)O3)c(F)c1 | >5.5
17 | N#Cc1ccc(OCCN2CC3CN(CCNS(=O)(=O)c4ccccc4)CC(C2)O3)cc1 | >5.5
18 | CS(=O)(=O)NCCN1CC2CN(CCCOc3ccc(C#N)cc3)CC(C1)O2 | >5.5
19 | N#Cc1ccc(OCCN2CC3CN(CCCNS(=O)(=O)Cc4ccccc4)CC(C2)O3)cc1 | >5.5
20 | N#Cc1ccc(CCN2CC3CN(CCNS(=O)(=O)c4ccc(F)cc4)CC(C2)O3)cc1 | >5.5
21 | CC(C)(C)NS(=O)(=O)CCCN1CC2CN(CCCOc3ccc(C#N)cc3)CC(C1)O2 | >5.5
22 | N#Cc1ccc(OCCN2CC3CN(CCCNS(=O)(=O)c4ccc(F)cc4F)CC(C2)O3)cc1 | >5.5

Row | Structure (SMILES) | D10 [mg/kg]
23 | N#Cc1ccc(OCCN2CC3CN(CCNS(=O)(=O)c4ccc5c(c4)CCO5)CC(C2)O3)c(F)c1 | >5.5
24 | CC(C)S(=O)(=O)NCCN1CC2CN(C[C@H](O)COc3ccc(C#N)cc3)CC(C1)O2 | >5.5
25 | Cn1cnc(S(=O)(=O)NCCN2CC3CN(CCOc4ccc(C#N)cc4)CC(C2)O3)c1 | >5.5
26 | N#Cc1ccc(OCCN2CC3CN(CCCNS(=O)(=O)c4ccc(F)cc4)CC(C2)O3)c(F)c1 | >5.5
27 | COc1ccc(S(=O)(=O)NCCN2CC3CN(CCCOc4ccc(C#N)cc4)CC(C2)O3)cc1 | >5.5
28 | N#Cc1ccc(S(=O)(=O)NCCN2CC3CN(CCCOc4ccc(F)c(F)c4)CC(C2)O3)cc1 | >5.5
29 | N#Cc1ccc(CNS(=O)(=O)CCN2CC3CN(Cc4ccccc4C#N)CC(C2)O3)cc1 | >5.5
30 | Cc1noc(C)c1S(=O)(=O)NCCCN1CC2CN(Cc3ccc(C#N)cc3)CC(C1)O2 | >5.5
31 | N#Cc1ccc(OCCCN2CC3CN(CCNS(=O)(=O)c4ccc(F)cc4)CC(C2)O3)cc1 | >5.5
32 | N#Cc1ccc(OCCCN2CC3CN(CCNS(=O)(=O)C(F)(F)F)CC(C2)O3)cc1 | >5.5
33 | N#Cc1ccc(OCCN2CC3CN(CCNS(=O)(=O)c4ccccc4)CC(C2)O3)c(F)c1 | >5.5
34 | Cc1noc(C)c1S(=O)(=O)NCCN1CC2CN(Cc3ccc(C#N)cc3)CC(C1)O2 | >5.5
35 | N#Cc1ccc(S(=O)(=O)NCCN2CC3CN(CCOc4ccccc4F)CC(C2)O3)cc1 | >5.5
36 | CN(CCN1CC2CN(CCCOc3ccc(F)cc3)CC(C1)O2)S(=O)(=O)c1ccc(C#N)cc1 | >5.5
37 | N#Cc1ccc(S(=O)(=O)NCCN2CC3CN(CCc4ccc(C(F)(F)F)cc4)CC(C2)O3)cc1 | >5.5
38 | N#Cc1ccc(OCCN2CC3CN(CCNS(=O)(=O)c4ccccc4C#N)CC(C2)O3)cc1 | >5.5
39 | N#Cc1ccc(OCCN2CC3CN(CCNS(=O)(=O)Cc4ccc(C(F)(F)F)cc4)CC(C2)O3)cc1 | >5.5
40 | N#Cc1ccc(OCCCN2CC3CN(CCNS(=O)(=O)c4ccc5c(c4)CCO5)CC(C2)O3)cc1 | >5.5
41 | N#Cc1ccc(S(=O)(=O)NCCN2CC3CN(CCOc4ccc(F)cc4)CC(C2)O3)cc1 | >5.5
42 | N#Cc1ccc(S(=O)(=O)NCCCN2CC3CN(CCc4c(F)cccc4F)CC(C2)O3)cc1 | >5.5
43 | CN(CCN1CC2CN(CCc3ccc(F)cc3)CC(C1)O2)S(=O)(=O)c1ccc(C#N)cc1 | >5.5
44 | CN(CCN1CC2CN(CCc3ccc(F)c(F)c3)CC(C1)O2)S(=O)(=O)c1ccc(C#N)cc1 | >5.5

Row | Structure (SMILES) | D10 [mg/kg]
45 | O=S(=O)(NCCN1CC2CN(CCc3ccccc3F)CC(C1)O2)c1ccc(F)cc1 | >5.5
46 | N#Cc1ccc(OCCCN2CC3CN(CCCNS(=O)(=O)Cc4ccccc4)CC(C2)O3)cc1 | >5.5
47 | Cc1noc(C)c1CN1CC2CN(CCS(=O)(=O)N(Cc3ccc(C#N)cc3)Cc3c(C)noc3C)CC(C1)O2 | >5.5
48 | N#Cc1ccc(OCCN2CC3CN(CCCNS(=O)(=O)c4ccccc4F)CC(C2)O3)cc1 | >5.5
49 | N#Cc1ccc(OCCCN2CC3CN(CCNS(=O)(=O)c4cccc(C#N)c4)CC(C2)O3)cc1 | >5.5
50 | CN(CCN1CC2CN(CCc3ccccc3F)CC(C1)O2)S(=O)(=O)c1ccc(C#N)cc1 | >5.5
51 | Cc1noc(C)c1S(=O)(=O)NCCCN1CC2CN(CCCOc3ccc(C#N)cc3)CC(C1)O2 | >5.5
52 | N#Cc1ccc(OCCN2CC3CN(CCNS(=O)(=O)Cc4ccccc4)CC(C2)O3)c(F)c1 | >5.5
53 | N#Cc1ccc(S(=O)(=O)NCCCN2CC3CN(Cc4ccccc4)CC(C2)O3)cc1 | >5.5
54 | N#Cc1ccc(CNS(=O)(=O)CCN2CC3CN(Cc4ccc(C#N)cc4)CC(C2)O3)cc1 | >5.5
55 | N#Cc1ccc(OCCN2CC3CN(CCNS(=O)(=O)c4ccc(C#N)cc4)CC(C2)O3)cc1 | >5.5
56 | CN(CCN1CC2CN(CCCOc3ccc(F)cc3F)CC(C1)O2)S(=O)(=O)c1ccc(C#N)cc1 | >5.5
57 | COc1ccc(S(=O)(=O)NCCN2CC3CN(CCOc4ccc(C#N)cc4)CC(C2)O3)cc1 | >5.5
58 | N#Cc1ccc(S(=O)(=O)NCCCN2CC3CN(CCc4ccc(F)c(F)c4)CC(C2)O3)cc1 | >5.5
59 | CC(C)(C)OC(=O)NCCN1CC2CN(CCNS(=O)(=O)c3ccc(F)cc3)CC(C1)O2 | >5.5
60 | N#Cc1ccc(OCCN2CC3CN(CCNS(=O)(=O)c4ccc(F)cc4F)CC(C2)O3)cc1 | >5.5
61 | N#Cc1ccc(OCCCN2CC3CN(CCNS(=O)(=O)c4ccccc4C#N)CC(C2)O3)cc1 | >5.5
62 | N#Cc1ccc(CN2CC3CN(CCNS(=O)(=O)Cc4ccccc4)CC(C2)O3)cc1 | >5.5
63 | N#Cc1ccc(OCCCN2CC3CN(CCNS(=O)(=O)Cc4ccc(C(F)(F)F)cc4)CC(C2)O3)cc1 | >5.5
64 | N#Cc1ccc(S(=O)(=O)NCCN2CC3CN(CCCOc4cc(F)ccc4F)CC(C2)O3)cc1 | >5.5
65 | N#Cc1ccc(OCCCN2CC3CN(CCNS(=O)(=O)c4ccccc4)CC(C2)O3)cc1 | >5.5
66 | N#Cc1ccc(CN2CC3CN(CCNS(=O)(=O)c4ccc(C#N)cc4)CC(C2)O3)cc1 | >5.5

Row | Structure (SMILES) | D10 [mg/kg]
67 | N#Cc1ccc(S(=O)(=O)NCCN2CC3CN(CCc4ccccc4F)CC(C2)O3)cc1 | >5.5
68 | N#Cc1ccc(OCCN2CC3CN(CCNS(=O)(=O)c4ccccc4F)CC(C2)O3)cc1 | >5.5
69 | N#Cc1ccc(S(=O)(=O)NCCN2CC3CN(CCCOc4ccc(F)cc4)CC(C2)O3)cc1 | >5.5
70 | CC(C)S(=O)(=O)NCCCN1CC2CN(CCCOc3ccc(C#N)cc3)CC(C1)O2 | >5.5
71 | N#Cc1ccc(S(=O)(=O)NCCN2CC3CN(Cc4ccccc4C#N)CC(C2)O3)cc1 | >5.5
72 | CN(CCN1CC2CN(CCc3ccccc3)CC(C1)O2)S(=O)(=O)c1ccc(C#N)cc1 | >5.5
73 | N#Cc1ccc(OCCN2CC3CN(CCNS(=O)(=O)c4ccc(F)cc4)CC(C2)O3)cc1 | >5.5
74 | N#Cc1ccc(OCCN2CC3CN(CCCNS(=O)(=O)c4ccccc4)CC(C2)O3)c(F)c1 | >5.5
75 | CCCCS(=O)(=O)NCCN1CC2CN(CCCOc3ccc(C#N)cc3)CC(C1)O2 | >5.5
76 | N#Cc1ccc(S(=O)(=O)NCCCN2CC3CN(CCc4ccc(F)cc4)CC(C2)O3)cc1 | >5.5
77 | N#Cc1ccc(CN2CC3CN(CCCNS(=O)(=O)c4ccc(C#N)cc4)CC(C2)O3)cc1 | >5.5
78 | N#Cc1ccc(S(=O)(=O)NCCN2CC3CN(Cc4noc5ccccc45)CC(C2)O3)cc1 | >5.5
79 | N#Cc1ccc(CNS(=O)(=O)CCN2CC3CN(CCc4ccc(F)cc4)CC(C2)O3)cc1 | >5.5
80 | N#Cc1ccc(S(=O)(=O)NCCN2CC3CN(Cc4nc5ccccc5o4)CC(C2)O3)cc1 | >5.5
81 | CN(CCCN1CC2CN(CCOc3ccc(C#N)cc3F)CC(C1)O2)S(=O)(=O)c1ccccc1 | >5.5
82 | Cn1cnc(S(=O)(=O)NCCN2CC3CN(CCCOc4ccc(C#N)cc4)CC(C2)O3)c1 | >5.5
83 | N#Cc1ccc(S(=O)(=O)NCCCN2CC3CN(CCOc4c(F)cccc4F)CC(C2)O3)cc1 | >5.5
84 | N#Cc1ccc(S(=O)(=O)NCCN2CC3CN(CCCOc4ccc(F)cc4F)CC(C2)O3)cc1 | >5.5
85 | N#Cc1ccc(S(=O)(=O)NCCN2CC3CN(CCOc4ccc(C#N)cc4F)CC(C2)O3)cc1 | >5.5
86 | N#Cc1ccc(OCCCN2CC3CN(CCNS(=O)(=O)Cc4ccccc4)CC(C2)O3)cc1 | >5.5
